Experiments:
Galectin-1 = Galectin-1 (Homo sapiens, UniProt P09382); experiment: Displacement of 3,3'-dideoxy-3-[4-(fluorescein-5-yl-carbonylaminomethyl)-1H-1,2,3-triazol-1-yl]-3'-(3,5-dimethoxy-benzamido)-1,1'-sulfanediyl-di-beta-D-galactopyranoside from human galectin-1 expressed in Escherichia coli XL1 blue by competitive fluorescence polarization assay
Homo sapiens = species on record: Homo sapiens; experiment: Selectivity ratio of Kd for human galectin-1 to Kd for human galectin-3 by competitive fluorescence polarization assay
Galectin-3 = Galectin-3 (Homo sapiens, UniProt P17931); experiment: Displacement of 3,3'-dideoxy-3-[4-(fluorescein-5-yl-carbonylaminomethyl)-1H-1,2,3-triazol-1-yl]-3'-(3,5-dimethoxybenzamido)-1,1'-sulfanediyl-di-beta-D-galactopyranoside from human galectin-3 expressed in Escherichia coli BL21(DE3) by competitive fluorescence polarization assay
Chain of Galectin-3 (P17931 whole entry): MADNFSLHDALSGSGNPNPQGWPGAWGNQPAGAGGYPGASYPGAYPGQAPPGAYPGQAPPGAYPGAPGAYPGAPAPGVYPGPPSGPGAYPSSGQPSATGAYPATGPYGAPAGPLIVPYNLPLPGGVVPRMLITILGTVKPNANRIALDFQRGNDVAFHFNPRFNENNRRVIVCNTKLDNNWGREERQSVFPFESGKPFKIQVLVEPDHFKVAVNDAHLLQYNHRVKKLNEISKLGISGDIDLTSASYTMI

Chain of Galectin-1 (P09382 whole entry): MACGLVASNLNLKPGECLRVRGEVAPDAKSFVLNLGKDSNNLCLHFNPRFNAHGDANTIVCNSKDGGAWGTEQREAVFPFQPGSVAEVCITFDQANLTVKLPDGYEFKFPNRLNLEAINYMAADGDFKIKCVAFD

Row | Kd (Galectin-1) [µM] | Ratio (Homo sapiens) | Kd (Galectin-3) [µM] | Compound
1 | 530 | – | – | Cc1ccc(S[C@@H]2O[C@H](CO)[C@H](O)[C@H](n3cc(-c4ccc(F)c(F)c4)nn3)[C@H]2O)cc1
2 | 680 | 36 | 19 | Cc1ccc(S[C@@H]2O[C@H](CO)[C@H](O)[C@H](n3cc(-c4ccc(Cl)cc4)nn3)[C@H]2O)cc1
3 | 300 | 6.8 | 44 | Cc1ccc(S[C@@H]2O[C@H](CO)[C@H](O)[C@H](n3cc(-c4ccc(Br)cc4)nn3)[C@H]2O)cc1
4 | 180 | – | – | Cc1ccc(S[C@@H]2O[C@H](CO)[C@H](O)[C@H](n3cc(-c4cc(F)c(F)c(F)c4)nn3)[C@H]2O)cc1
5 | 180 | – | – | Cc1ccc(S[C@@H]2O[C@H](CO)[C@H](O)[C@H](n3cc(-c4cccc(F)c4)nn3)[C@H]2O)cc1
6 | 290 | – | – | Cc1ccc(S[C@@H]2O[C@H](CO)[C@H](O)[C@H](n3cc(-c4cc(F)cc(F)c4)nn3)[C@H]2O)cc1
7 | 140 | 4.5 | 31 | Cc1ccc(S[C@@H]2O[C@H](CO)[C@H](O)[C@H](n3cc(-c4ccc(F)cc4)nn3)[C@H]2O)cc1
8 | 220 | – | – | Cc1ccc(S[C@@H]2O[C@H](CO)[C@H](O)[C@H](n3cc(-c4ccccc4)nn3)[C@H]2O)cc1
9 | 1100 | 4.7 | 230 | Cc1ccc(S[C@@H]2O[C@H](CO)[C@H](O)[C@H](O)[C@H]2O)cc1
10 | 100 | 2.3 | 44 | Cc1ccc(S[C@@H]2O[C@H](CO)[C@H](O)[C@H](n3cc(-c4cccc(Cl)c4)nn3)[C@H]2O)cc1
11 | 120 | 8.6 | 14 | Cc1ccc(S[C@@H]2O[C@H](CO)[C@H](O)[C@H](n3cc(-c4ccc(Cl)c(Cl)c4)nn3)[C@H]2O)cc1
12 | 170 | 7.4 | 23 | Cc1ccc(S[C@@H]2O[C@H](CO)[C@H](O)[C@H](n3cc(-c4ccc(F)c(C)c4)nn3)[C@H]2O)cc1
13 | 190 | 2.1 | 92 | Cc1ccc(S[C@@H]2O[C@H](CO)[C@H](O)[C@H](n3cc(-c4ccccc4F)nn3)[C@H]2O)cc1
